Laboratory results from patent US20210330611A1, “THERAPY FOR NEUROLOGICAL DISEASES/DISORDERS” (priority 2020, published 2021).
Where a name gives a salt, the structure may show the parent alone. Read-outs that look alike come from different tables or passages of the source.

Columns and labels:
[1] = test system: fibrin- and LPS-induced microglia activation; test: cells; format: cell-based, rat
primary rat microglia [2] = test: Cell toxicity (dead cells, size <150 μm2) in LPS assay
[3] = test system: fibrin-induced microglia activation; test: Image-based assay of fibrin-induced microglia activation (HTS and dose response); format: cell-based, rat; conditions: for inhibition at 10 µM: Rattus norvegicus, Microglia, read-out: Fibrin % inhibition
primary rat microglia [4] = test: Cell toxicity (dead cells, size <150 μm2) in coated fibrin (cFib) assay;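 note: share of dead cells sized under 150 µm2 at 10 µM in fibrin-stimulated microglia HTS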
[5] = test system: LPS-induced microglia activation; test: Image-based assay of LPS-induced microglia activation (HTS and dose response); format: cell-based, rat; conditions: for inhibition at 10 µM: Rattus norvegicus, Microglia, read-out: LPS % inhibition
[6] = primary HTS, 10 μM, LPS assay, dead cells size <150 μm2
[7] = primary HTS, 10 μM, fibrin-stimulated primary microglia
[8] = primary HTS, 10 μM, fibrin assay, dead cells size <150 μm2
[9] = primary HTS, 10 μM, LPS-stimulated primary microglia
[10] = HTS of 1907 compounds, quadrant by fibrin and LPS inhibition
[11] = primary microglia HTS, 10 μM, LPS assay, cell size <150 μm^2 as marker of toxicity
[12] = primary microglia HTS, 10 μM, fibrin-stimulated, cell size >800 μm^2 as marker of activation
[13] = primary microglia HTS, 10 μM, fibrin assay, cell size <150 μm^2 as marker of toxicity
[14] = primary microglia HTS, 10 μM, LPS-stimulated, cell size >800 μm^2 as marker of activation
[15] = quadrant by fibrin and LPS inhibition in HTS of 1907 compounds
[16] = primary microglia HTS, LPS stimulation, decreased size (<150 μm^2) as marker of toxicity
[17] = primary microglia HTS, fibrin stimulation, increased cell size (>800 μm^2) as marker of activation
[18] = primary microglia HTS, fibrin stimulation, decreased size (<150 μm^2) as marker of toxicity
[19] = primary microglia HTS, LPS stimulation, increased cell size (>800 μm^2) as marker of activation
[20] = primary microglia HTS, LPS stimulation, toxicity = cell size <150 μm2
[21] = primary microglia HTS, fibrin stimulation, activation = cell size >800 μm2
[22] = primary microglia HTS, fibrin stimulation, toxicity = cell size <150 μm2
[23] = 48 h, primary microglia HTS, LPS stimulation, activation = cell size >800 μm2
[24] = 48 h, primary microglia HTS, LPS stimulation, increased cell size (>800 μm^2) as marker of activation

COc1c2ccoc2cc2oc(=O)ccc12 [Bergapten]
Quadrant (FIG. 5b) ([1]; primary HTS, 10 μM): Q4 | LPS % cell toxicity (primary rat microglia [2]; [6]): 0% | inhibition at 10 µM [3, 7]: -5% | Fibrin % cell toxicity (primary rat microglia [4]; [8]): 1% | inhibition at 10 µM [5, 9]: 22%

[H]/N=C(/N)NS(=O)(=O)c1ccc(N)cc1 [Sulfaguanidine]
Quadrant (FIG. 5b) [1, 10]: Q4 | LPS % cell toxicity (primary rat microglia [2]; [11]): 0% | inhibition at 10 µM [3, 12]: -23% | Fibrin % cell toxicity (primary rat microglia [4]; [13]): 1% | inhibition at 10 µM [5, 14]: 12%

O=C(Nc1ccc([N+](=O)[O-])cc1Cl)c1cc(Cl)ccc1O [Nicolsamide, Niclosamide]
Quadrant (FIG. 5b) [1, 15]: Q4 | LPS % cell toxicity (primary rat microglia [2]; [16]): 1% | Fibrin % inhibition [3, 17]: −2% | Fibrin % cell toxicity (primary rat microglia [4]; [18]): 1% | LPS % inhibition [5, 19]: 21%

CC1=C(/C=C/C(C)=C/C=C/C(C)=C/C(=O)Nc2ccc(O)cc2)C(C)(C)CCC1 [Fenretinide]
Quadrant (FIG. 5b) [1, 15]: Q4 | LPS % cell toxicity (primary rat microglia [2]; [20]): 0% | inhibition at 10 µM [3, 21]: -42% | Fibrin % cell toxicity (primary rat microglia [4]; [22]): 0% | inhibition at 10 µM [5, 23]: 35%

Cc1ccc(C(=O)Nc2ccc(S(=O)(=O)O)c3cc(S(=O)(=O)O)cc(S(=O)(=O)O)c23)cc1NC(=O)c1cccc(NC(=O)Nc2cccc(C(=O)Nc3cc(C(=O)Nc4ccc(S(=O)(=O)O)c5cc(S(=O)(=O)O)cc(S(=O)(=O)O)c45)ccc3C)c2)c1 [Suramin]
Quadrant (FIG. 5b) [1, 10]: Q4 | LPS % cell toxicity (primary rat microglia [2]; [11]): 0% | inhibition at 10 µM [3, 12]: -5% | Fibrin % cell toxicity (primary rat microglia [4]; [13]): 0% | inhibition at 10 µM [5, 14]: 18%

Merbromin
Quadrant (FIG. 5b) [1, 15]: Q4 | LPS % cell toxicity (primary rat microglia [2]; [16]): 0% | Fibrin % inhibition [3, 17]: −6% | Fibrin % cell toxicity (primary rat microglia [4]; [18]): 0% | LPS % inhibition [5, 19]: 36%

CCCCNc1ccc(C(=O)OCCN(C)C)cc1 [Tetracaine]
Quadrant (FIG. 5b) [1, 10]: Q4 | LPS % cell toxicity (primary rat microglia [2]; [11]): 1% | inhibition at 10 µM [3, 12]: 4% | Fibrin % cell toxicity (primary rat microglia [4]; [13]): 1% | inhibition at 10 µM [5, 14]: 9%

Cc1scc2c1N(C(=O)CN1CCN(C)CC1)c1ccccc1NC2=O
Quadrant (FIG. 5b) [1, 10]: Q4 | LPS % cell toxicity (primary rat microglia [2]; [11]): 0% | Fibrin % inhibition [3, 12]: 3% | Fibrin % cell toxicity (primary rat microglia [4]; [13]): 1% | LPS % inhibition [5, 14]: 14%

Cc1c(Nc2ncccc2C(=O)O)cccc1C(F)(F)F [Flunixin Meglumine]
Quadrant (FIG. 5b) [1, 15]: Q4 | LPS % cell toxicity (primary rat microglia [2]; [20]): 0% | inhibition at 10 µM [3, 21]: -6% | Fibrin % cell toxicity (primary rat microglia [4]; [22]): 1% | inhibition at 10 µM [5, 23]: 8%

O=C(O)CCc1nc(-c2ccccc2)c(-c2ccccc2)o1 [Oxaprozin]
Quadrant (FIG. 5b) [1, 15]: Q4 | LPS % cell toxicity (primary rat microglia [2]; [16]): 1% | inhibition at 10 µM [3, 17]: 0% | Fibrin % cell toxicity (primary rat microglia [4]; [18]): 1% | inhibition at 10 µM [5, 24]: 15%

O=C(O)c1ccc(S(=O)(=O)N(Cl)Cl)cc1 [Halazone]
Quadrant (FIG. 5b) [1, 15]: Q4 | LPS % cell toxicity (primary rat microglia [2]; [20]): 0% | inhibition at 10 µM [3, 21]: -13% | Fibrin % cell toxicity (primary rat microglia [4]; [22]): 0% | inhibition at 10 µM [5, 23]: 19%

O=[N+]([O-])C(Br)(CO)CO [Bronopol]
Quadrant (FIG. 5b) [1, 15]: Q1 | LPS % cell toxicity (primary rat microglia [2]; [16]): 61% | inhibition at 10 µM [3, 17]: 43% | Fibrin % cell toxicity (primary rat microglia [4]; [18]): 2% | inhibition at 10 µM [5, 24]: 119%

NS(=O)(=O)Cc1noc2ccccc12 [Zonisamide]
Quadrant (FIG. 5b) [1, 10]: Q4 | LPS % cell toxicity (primary rat microglia [2]; [11]): 0% | inhibition at 10 µM [3, 12]: -37% | Fibrin % cell toxicity (primary rat microglia [4]; [13]): 0% | inhibition at 10 µM [5, 14]: -12%

Cc1ccc(S(=O)(=O)NC(=O)NN2CC3CCCC3C2)cc1 (centres unmarked) [Gliclazide]
Quadrant (FIG. 5b) [1, 15]: Q4 | LPS % cell toxicity (primary rat microglia [2]; [20]): 0% | inhibition at 10 µM [3, 21]: 1% | Fibrin % cell toxicity (primary rat microglia [4]; [22]): 1% | inhibition at 10 µM [5, 23]: 20%

Nc1ncnc(Nc2ccc(Cl)cc2)n1 [Chlorazanil Hydrochloride]
Quadrant (FIG. 5b) ([1]; primary HTS, 10 μM): Q4 | LPS % cell toxicity (primary rat microglia [2]; [6]): 0% | inhibition at 10 µM [3, 7]: 0% | Fibrin % cell toxicity (primary rat microglia [4]; [8]): 1% | inhibition at 10 µM [5, 9]: 3%

CCCCC[C@H](O)/C=C/[C@H]1[C@H](O)CC(=O)[C@@H]1C/C=C\CCCC(=O)O [Dinoprostone]
Quadrant (FIG. 5b) [1, 15]: Q2 | LPS % cell toxicity (primary rat microglia [2]; [16]): 2% | inhibition at 10 µM [3, 17]: 102% | Fibrin % cell toxicity (primary rat microglia [4]; [18]): 9% | inhibition at 10 µM [5, 24]: 85%
